The values below come from ChEMBL document CHEMBL1128392, “Receptor surface models. 2. Application to quantitative structure-activity relationships studies” (J Med Chem, 1995).

For the assay, the target named is Dopamine beta-hydroxylase (Homo sapiens, UniProt P09172). Description: Inhibition of dopamine beta hydroxylase.
Sequence of Dopamine beta-hydroxylase (P09172 whole entry): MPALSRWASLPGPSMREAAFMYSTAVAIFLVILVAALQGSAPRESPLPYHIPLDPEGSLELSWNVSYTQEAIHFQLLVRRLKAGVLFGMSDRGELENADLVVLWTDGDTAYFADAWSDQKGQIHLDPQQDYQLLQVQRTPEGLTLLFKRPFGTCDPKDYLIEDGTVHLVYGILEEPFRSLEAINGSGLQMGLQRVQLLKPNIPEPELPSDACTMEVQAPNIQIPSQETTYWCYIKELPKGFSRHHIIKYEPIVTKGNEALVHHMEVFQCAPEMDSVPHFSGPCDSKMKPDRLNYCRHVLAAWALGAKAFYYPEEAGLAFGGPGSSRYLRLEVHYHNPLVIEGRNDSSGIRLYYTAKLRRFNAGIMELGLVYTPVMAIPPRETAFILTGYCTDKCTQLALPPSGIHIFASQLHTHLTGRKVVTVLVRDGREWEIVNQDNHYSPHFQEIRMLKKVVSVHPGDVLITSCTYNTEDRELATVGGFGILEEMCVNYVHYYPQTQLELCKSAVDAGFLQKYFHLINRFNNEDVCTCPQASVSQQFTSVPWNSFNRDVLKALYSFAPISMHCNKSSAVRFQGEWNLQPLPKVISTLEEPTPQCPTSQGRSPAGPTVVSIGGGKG
With `Oc1ccc(Cn2cc[nH]c2=S)cc1`, half-maximal inhibition (IC50) required 2.57 µM.

In the case of `S=c1[nH]ccn1Cc1ccccc1`, 33.1 µM corresponded to half-maximal inhibition (IC50).

For the compound `Fc1cc(F)cc(Cn2cc[nH]c2=S)c1`, the half-inhibitory concentration (IC50) (as a rule, the concentration that gives 50% inhibition) is 1.2 µM.

`Oc1ccc(Cn2cc[nH]c2=S)cc1C(F)(F)F` had an IC50 of 120 µM.

`S=c1[nH]ccn1Cc1c(Cl)cccc1Cl` gave an IC50 of 708 µM.

Regarding `O=[N+]([O-])c1ccc(Cn2cc[nH]c2=S)cc1`, the IC50 is 52.5 µM.

The compound `S=c1[nH]ccn1Cc1cc(Cl)cc(Cl)c1` gave an IC50 of 2.4 µM.

Compound `COc1ccccc1Cn1cc[nH]c1=S` gave an IC50 of 74.1 µM. This IC50 is about 31-fold higher than that of the compound before.

Compound `S=c1[nH]ccn1Cc1cccc(Cl)c1Cl` showed an IC50 of 52.5 µM.

`COc1ccc(Cn2cc[nH]c2=S)cc1F`: half-maximal inhibition (IC50) was put at 74.1 µM.

The compound `COc1c(F)cc(Cn2cc[nH]c2=S)cc1F` had an IC50 of 36.3 µM.

`S=c1[nH]ccn1Cc1c(Cl)cc(Cl)cc1Cl` showed an IC50 of 102 µM. Compared with the last compound, the IC50 is about 2.8-fold higher.

With `S=c1[nH]ccn1Cc1ccccc1Cl`, 355 µM corresponded to half-maximal inhibition (IC50).

`COc1c(Cl)cc(Cn2cc[nH]c2=S)cc1Cl`: the IC50 is 46.8 µM.

`S=c1[nH]ccn1Cc1ccc(Cl)cc1` had an IC50 of 95.5 µM.

For `COc1ccc(Cn2cc[nH]c2=S)cc1OC`, inhibition was half-maximal at 339 µM (IC50).

As for `S=c1[nH]ccn1Cc1ccc(Cl)cc1Cl`, the IC50 is 17 µM.

Compound `Oc1c(F)cc(Cn2cc[nH]c2=S)cc1F` had an IC50 of 0.0741 µM.

As to `COc1ccc(Cn2cc[nH]c2=S)cc1Br`, half-maximal inhibition (IC50) was put at 83.2 µM.

`S=c1[nH]ccn1Cc1cc(Cl)ccc1Cl` showed an IC50 of 97.7 µM.

`Oc1cccc(Cn2cc[nH]c2=S)c1` showed an IC50 of 148 µM.

`O=[N+]([O-])c1cc(Cn2cc[nH]c2=S)ccc1O` gave an IC50 of 30.9 µM. This IC50 is about 4.8-fold lower than that of the compound before.

With `Oc1c(F)c(F)c(Cn2cc[nH]c2=S)c(F)c1F`, the IC50 is 61.7 µM.

In the case of `COc1ccc(Cn2cc[nH]c2=S)cc1C`, the IC50 was 69.2 µM.

The compound `COc1cc(Cl)c(Cn2cc[nH]c2=S)c(Cl)c1` gave an IC50 of 155 µM.

The compound `S=c1[nH]ccn1Cc1ccc(Br)cc1` showed an IC50 of 115 µM.

On to `Cc1cc(Cn2cc[nH]c2=S)ccc1O`, for which the IC50 was 49 µM.

The compound `COc1ccc(Cn2cc[nH]c2=S)cc1[N+](=O)[O-]` gave an IC50 of 355 µM.

In the case of `Fc1cccc(Cn2cc[nH]c2=S)c1`, the IC50 was 5.62 µM.

`Oc1c(Cl)cc(Cn2cc[nH]c2=S)cc1Cl`: the IC50 was 0.676 µM.

Compound `Oc1ccccc1Cn1cc[nH]c1=S` gave an IC50 of 575 µM.

`Oc1ccc(Cn2cc[nH]c2=S)cc1F` had an IC50 of 1.51 µM.

For `FC(F)(F)c1ccc(Cn2cc[nH]c2=S)cc1`, the IC50 was 200 µM.

`Cc1ccccc1Cn1cc[nH]c1=S` gave an IC50 of 339 µM.

In turn, `Cc1ccc(Cn2cc[nH]c2=S)cc1` showed an IC50 of 148 µM. Compared with the last compound, the IC50 is about 2.3-fold lower.

`COc1cccc(OC)c1Cn1cc[nH]c1=S`: the IC50 is 501 µM.

The compound `S=c1[nH]ccn1Cc1ccc(Cl)c(Cl)c1` had an IC50 of 28.2 µM.

`Oc1ccc(Cn2cc[nH]c2=S)cc1Br` gave an IC50 of 12 µM.

`S=c1[nH]ccn1Cc1cccc(Cl)c1` showed an IC50 of 12 µM. This counts as double-digit micromolar.

As for `Oc1cc(Cl)c(Cn2cc[nH]c2=S)c(Cl)c1`, the IC50 was 75.9 µM.

As for `COc1ccc(Cn2cc[nH]c2=S)cc1C(F)(F)F`, the IC50 is 174 µM.

In turn, `Fc1ccc(Cn2cc[nH]c2=S)cc1` showed an IC50 of 46.8 µM.

`Oc1ccc(Cn2cc[nH]c2=S)cc1O` showed an IC50 of 2.19 µM.

`Cc1cccc(C)c1Cn1cc[nH]c1=S` gave a half-maximal inhibitory concentration (IC50) of 1000 µM. This IC50 lies about 460-fold higher than the previous one.

As for `COc1cccc(Cn2cc[nH]c2=S)c1`, the IC50 was 158 µM.

In turn, `COc1ccc(Cn2cc[nH]c2=S)cc1` gave an IC50 of 204 µM.
